Reference: patent US20150274719A1, “AMINO-SUBSTITUTED IMIDAZO[1,2-A]PYRIDINECARBOXAMIDES AND THEIR USE” (BAYER PHARMA AKTIENGESELLSCHAFT, priority 2012, published 2015)

Target: T1, recombinant guanylate cyclase reporter cell line (Rattus norvegicus, UniProt P19686+P20595)
T1 construct: expressed in transfected cells; host or cells: recombinant reporter cell line
T1 sequence (P19686 1-690): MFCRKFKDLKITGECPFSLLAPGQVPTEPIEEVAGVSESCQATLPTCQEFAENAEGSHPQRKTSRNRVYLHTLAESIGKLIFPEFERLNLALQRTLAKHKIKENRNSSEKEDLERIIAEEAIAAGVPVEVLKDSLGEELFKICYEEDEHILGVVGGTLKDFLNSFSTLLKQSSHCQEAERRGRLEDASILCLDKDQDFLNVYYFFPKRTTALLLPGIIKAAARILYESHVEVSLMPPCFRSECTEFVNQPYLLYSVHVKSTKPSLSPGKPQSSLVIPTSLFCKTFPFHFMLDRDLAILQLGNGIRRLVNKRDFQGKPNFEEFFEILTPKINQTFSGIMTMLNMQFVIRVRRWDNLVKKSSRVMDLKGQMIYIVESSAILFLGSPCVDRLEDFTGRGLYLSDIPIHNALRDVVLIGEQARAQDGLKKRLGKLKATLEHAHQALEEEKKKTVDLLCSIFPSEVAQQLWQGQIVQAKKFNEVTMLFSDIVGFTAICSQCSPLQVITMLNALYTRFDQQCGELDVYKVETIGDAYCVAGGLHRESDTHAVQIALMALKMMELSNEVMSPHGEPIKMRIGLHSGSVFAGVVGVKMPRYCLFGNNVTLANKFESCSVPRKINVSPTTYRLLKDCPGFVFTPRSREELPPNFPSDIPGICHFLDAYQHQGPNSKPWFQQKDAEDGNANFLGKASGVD
T1 sequence (P20595 1-619): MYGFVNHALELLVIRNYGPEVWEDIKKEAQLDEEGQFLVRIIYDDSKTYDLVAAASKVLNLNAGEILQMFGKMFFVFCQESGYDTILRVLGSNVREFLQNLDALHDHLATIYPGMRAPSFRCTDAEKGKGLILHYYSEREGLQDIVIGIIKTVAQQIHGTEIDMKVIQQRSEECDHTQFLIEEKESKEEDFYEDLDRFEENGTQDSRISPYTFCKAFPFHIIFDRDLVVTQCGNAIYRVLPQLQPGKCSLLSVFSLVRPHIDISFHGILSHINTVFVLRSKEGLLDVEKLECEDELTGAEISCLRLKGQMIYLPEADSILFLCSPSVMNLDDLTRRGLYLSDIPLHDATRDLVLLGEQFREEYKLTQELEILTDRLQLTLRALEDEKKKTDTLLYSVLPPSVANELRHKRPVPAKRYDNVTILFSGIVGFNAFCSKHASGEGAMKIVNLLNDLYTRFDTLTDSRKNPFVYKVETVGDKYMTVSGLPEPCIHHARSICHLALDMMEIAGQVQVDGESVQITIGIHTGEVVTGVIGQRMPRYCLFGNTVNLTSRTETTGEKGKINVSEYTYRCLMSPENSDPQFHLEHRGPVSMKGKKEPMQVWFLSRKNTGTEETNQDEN
Assay: Action on recombinant guanylate cyclase reporter cell line
Type: cell-based
Settings: in some cases mean values from individual determinations
Summary of the method: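 Whole-cell reporter assay with recombinant guanylate cyclase; endpoint = minimal effective concentration.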

Compared with COCC(C)(N)CNC(=O)c1c(C)nc2c(OCc3c(F)cccc3F)cccn12 (single isomer, unassigned) [Example 214, ent-N-(2-Amino-3-methoxy-2-methylpropyl)-8-[(2,6-difluorobenzyl)oxy]-2-methylimidazo[1,2-a]-pyridine-3-carboxamide], Cc1nc2c(OCc3c(F)cccc3F)cccn2c1C(=O)NCC(C)(C)CN [Example 103, N-(3-amino-2,2-dimethylpropyl)-8-[(2,6-difluorobenzyl)oxy]-2-methylimidazo[1,2-a]-pyridine-3-carboxamide] is 10-fold higher in “MEC (minimal effective concentration)” value: 0.30 µM for the first, 3.00 µM for the second.

Compared with Cc1cc(OCc2c(F)cccc2F)c2nc(C)c(C(=O)NCC(C)N3CCOCC3)n2c1 (single isomer, unassigned; ent-8) [Example 186, ent-8-[(2,6-Difluorobenzyl)oxy]-2,6-dimethyl-N-[2-(morpholin-4-yl)propyl]imidazo[1,2-a]-pyridine-3-carboxamide], Cc1nc2c(OCc3c(F)cccc3F)cccn2c1C(=O)NCC(C)N1CCOCC1 (single isomer, unassigned; ent-8) [Example 180, ent-8-[(2,6-Difluorobenzyl)oxy]-2-methyl-N-[2-(morpholin-4-yl)propyl]imidazo[1,2-a]pyridine-3-carboxamide] is 3.3-fold higher in “MEC (minimal effective concentration)” value: 0.30 µM for the first, 1.00 µM for the second.

Going from CCC(C)(N)CNC(=O)c1c(C)nc2c(OCc3c(F)ccc(C4CC4)c3F)cc(C)cn12 (stereo not drawn) [Example 363, ent-N-(2-amino-2-methylbutyl)-8-[(3-cyclopropyl-2,6-difluorobenzyl)oxy]-2,6-dimethylimidazo[1,2-a]pyridine-3-carboxamide] to CCCc1nc2c(OCc3c(F)cccc3F)cc(C)cn2c1C(=O)NCC(C)(N)CC (stereo not drawn) [Example 327, ent-N-(2-amino-2-methylbutyl)-8-[(2,6-difluorobenzyl)oxy]-6-methyl-2-propylimidazo[1,2-a]pyridine-3-carboxamide], the “MEC (minimal effective concentration)” value falls from 3.00 µM to 1.00 µM (3-fold).

Compared with Cc1cc(OCc2c(F)cccc2F)c2nc(C)c(C(=O)NCCN3CCN(C)CC3)n2c1 [Example 137, 8-[(2,6-difluorobenzyl)oxy]-2,6-dimethyl-N-[2-(4-methylpiperazin-1-yl)ethyl]imidazo[1,2-a]-pyridine-3-carboxamide], Cc1cc(OCc2c(F)cccc2F)c2nc(C)c(C(=O)NCCNC(C)(C)C)n2c1 [Example 255, N-[2-(tert-Butylamino)ethyl]-8-[(2,6-difluorobenzyl)oxy]-2,6-dimethylimidazo[1,2-a]pyridine-3-carboxamide] is 3.3-fold lower in “MEC (minimal effective concentration)” value: 1.00 µM for the first, 0.30 µM for the second.

First: Cc1cc(OCc2c(F)cccc2F)c2nc(C)c(C(=O)NC3(C)CCC3(C)N)n2c1 (single isomer, unassigned; enantiomer a) [Example 336, ent-N-[(2-amino-1,2-dimethylcyclobutyl]-8-[(2,6-difluorobenzyl)oxy]-2,6-dimethylimidazo[1,2-a]pyridine-3-carboxamide (Enantiomer A)]
Second: Cc1cc(OCc2c(F)cccc2F)c2nc(C)c(C(=O)NCC(C)(N)CC(C)C)n2c1 (single isomer, unassigned) [Example 220, ent-N-(2-Amino-2,4-dimethylpentyl)-8-[(2,6-difluorobenzyl)oxy]-2,6-dimethylimidazo[1,2-a]-pyridine-3-carboxamide]
The “MEC (minimal effective concentration)” value of the first is 3-fold higher: 0.30 µM for the first, 0.10 µM for the second.

Going from Cc1cc(OC(C)c2c(F)cccc2F)c2nc(C)c(C(=O)NCC(C)(C)N)n2c1 (single isomer, unassigned; enantiomer b) [Example 256, ent-N-(2-Amino-2-methylpropyl)-8-[1-(2,6-difluorophenyl)ethoxy]-2,6-dimethylimidazo[1,2-a]-pyridine-3-carboxamide (Enantiomer B)] to Cc1cc(OCc2c(F)cccc2F)c2nc(C)c(C(=O)NCC(C)(N)Cc3ccccn3)n2c1 (single isomer, unassigned; enantiomer a) [Example 298, ent-N-[2-amino-2-methyl-3-(pyridin-2-yl)propyl]-8-[(2,6-difluorobenzyl)oxy]-2,6-dimethyl-imidazo[1,2-a]pyridine-3-carboxamide (Enantiomer A)], the “MEC (minimal effective concentration)” value falls from 3.00 µM to 0.10 µM (30-fold).

Compared with CCCC(C)(N)CNC(=O)c1c(C)nc2c(OCc3c(F)cccc3F)cc(Cl)cn12 (single isomer, unassigned; enantiomer a) [Example 245, ent-N-(2-Amino-2-methylpentyl)-6-chloro-8-[(2,6-difluorobenzyl)oxy]-2-methylimidazo[1,2-a]-pyridine-3-carboxamide (Enantiomer A)], COCC(C)(N)CNC(=O)c1c(C)nc2c(OCc3c(F)cccc3F)cc(Cl)cn12 (racemic) [Example 159, rac-N-(2-amino-3-methoxy-2-methylpropyl)-6-chloro-8-[(2,6-difluorobenzyl)oxy]-2-methylimidazo[1,2-a]pyridine-3-carboxamide] is 3-fold higher in “MEC (minimal effective concentration)” value: 0.10 µM for the first, 0.30 µM for the second.

First: COCCNCCNC(=O)c1c(C)nc2c(OCc3c(F)cccc3F)cc(Cl)cn12 [Example 153, 6-chloro-8-[(2,6-difluorobenzyl)oxy]-N-{2-[(2-methoxyethyl)amino]ethyl}-2-methylimidazo[1,2-a]pyridine-3-carboxamide]
Second: Cc1cc(OCc2c(F)cccc2F)c2nc(C)c(C(=O)NC(CN)c3cnn(C)c3)n2c1 (racemic) [Example 387, rac-N-[2-amino-1-(1-methyl-1H-pyrazol-4-yl)ethyl]-8-[(2,6-difluorobenzyl)oxy]-2,6-dimethylimidazo[1,2-a]pyridine-3-carboxamide]
The “MEC (minimal effective concentration)” value of the first is 10-fold lower: 1.00 µM for the first, 10.0 µM for the second.

First: CCCC[C@H](CN1CCOCC1)NC(=O)c1c(C)nc2c(OCc3c(F)cccc3F)cccn12 [Example 64, ent-8-[(2,6-Difluorobenzyl)oxy]-2-methyl-N-[(2R)-1-(morpholin-4-yl)hexan-2-yl]imidazo[1,2-a]-pyridine-3-carboxamide]
Second: Cc1nc2c(OCc3c(F)cccc3F)cccn2c1C(=O)NCCN1CCS(=O)(=O)CC1 [Example 131, 8-[(2,6-difluorobenzyl)oxy]-N-[2-(1,1-dioxidothiomorpholin-4-yl)ethyl]-2-methylimidazo[1,2-a]pyridine-3-carboxamide]
The “MEC (minimal effective concentration)” value of the first is 10-fold lower: 0.30 µM for the first, 3.00 µM for the second.

Compared with Cc1nc2c(OCc3c(F)cccc3F)cccn2c1C(=O)NCC(N)C(F)(F)F (racemic) [Example 207, rac-N-(2-Amino-3,3,3-trifluoropropyl)-8-[(2,6-difluorobenzyl)oxy]-2-methylimidazo[1,2-a]-pyridine-3-carboxamide], CCCC(C)(N)CNC(=O)c1c(C)nc2c(OCc3c(F)cccc3F)cc(N3CCOCC3)cn12 (single isomer, unassigned; enantiomer b) [Example 280, ent-N-(2-amino-2-methylpentyl)-8-[(2,6-difluorobenzyl)oxy]-2-methyl-6-(morpholin-4-yl)imidazo[1,2-a]pyridine-3-carboxamide (Enantiomer B)] is 1.5-fold lower in “MEC (minimal effective concentration)” value: 1.00 µM for the first, 0.65 µM for the second.
